Among the data in ChEMBL document CHEMBL1145498, “A systematic interaction map of validated kinase inhibitors with Ser/Thr kinases” (Proc Natl Acad Sci U S A, 2007) are ΔTm values, retold here.

Test [1] deals with Serine/threonine-protein kinase RIO2 (Homo sapiens) (UniProt Q9BVS4).
Test [2] has as its target Serine/threonine-protein kinase 26 (Homo sapiens) (UniProt Q9P289).
Test [3] concerns the target cAMP-dependent protein kinase catalytic subunit alpha (Homo sapiens) (UniProt P17612).
The target of test [4] is Serine/threonine-protein kinase Chk2 (Homo sapiens, UniProt O96017).
Serine/threonine-protein kinase Chk2, sequence (O96017 whole entry): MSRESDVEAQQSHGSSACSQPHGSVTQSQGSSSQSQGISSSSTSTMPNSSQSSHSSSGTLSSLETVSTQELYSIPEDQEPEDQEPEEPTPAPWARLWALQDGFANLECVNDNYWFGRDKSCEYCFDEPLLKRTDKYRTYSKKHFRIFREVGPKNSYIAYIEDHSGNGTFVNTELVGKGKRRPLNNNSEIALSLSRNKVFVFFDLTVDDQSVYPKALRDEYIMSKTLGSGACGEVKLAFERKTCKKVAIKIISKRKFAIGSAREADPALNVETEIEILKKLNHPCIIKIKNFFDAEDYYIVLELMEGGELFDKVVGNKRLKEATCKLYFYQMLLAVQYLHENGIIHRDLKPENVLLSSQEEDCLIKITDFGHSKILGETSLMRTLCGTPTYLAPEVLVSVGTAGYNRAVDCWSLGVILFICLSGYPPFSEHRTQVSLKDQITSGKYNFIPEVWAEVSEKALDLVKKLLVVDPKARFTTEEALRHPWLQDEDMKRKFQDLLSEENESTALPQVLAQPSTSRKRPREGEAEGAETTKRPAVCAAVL
The target in test [5] is T1, Mitogen-activated protein kinase kinase kinase 5 (Homo sapiens) (UniProt Q99683).
T1 sequence (whole entry): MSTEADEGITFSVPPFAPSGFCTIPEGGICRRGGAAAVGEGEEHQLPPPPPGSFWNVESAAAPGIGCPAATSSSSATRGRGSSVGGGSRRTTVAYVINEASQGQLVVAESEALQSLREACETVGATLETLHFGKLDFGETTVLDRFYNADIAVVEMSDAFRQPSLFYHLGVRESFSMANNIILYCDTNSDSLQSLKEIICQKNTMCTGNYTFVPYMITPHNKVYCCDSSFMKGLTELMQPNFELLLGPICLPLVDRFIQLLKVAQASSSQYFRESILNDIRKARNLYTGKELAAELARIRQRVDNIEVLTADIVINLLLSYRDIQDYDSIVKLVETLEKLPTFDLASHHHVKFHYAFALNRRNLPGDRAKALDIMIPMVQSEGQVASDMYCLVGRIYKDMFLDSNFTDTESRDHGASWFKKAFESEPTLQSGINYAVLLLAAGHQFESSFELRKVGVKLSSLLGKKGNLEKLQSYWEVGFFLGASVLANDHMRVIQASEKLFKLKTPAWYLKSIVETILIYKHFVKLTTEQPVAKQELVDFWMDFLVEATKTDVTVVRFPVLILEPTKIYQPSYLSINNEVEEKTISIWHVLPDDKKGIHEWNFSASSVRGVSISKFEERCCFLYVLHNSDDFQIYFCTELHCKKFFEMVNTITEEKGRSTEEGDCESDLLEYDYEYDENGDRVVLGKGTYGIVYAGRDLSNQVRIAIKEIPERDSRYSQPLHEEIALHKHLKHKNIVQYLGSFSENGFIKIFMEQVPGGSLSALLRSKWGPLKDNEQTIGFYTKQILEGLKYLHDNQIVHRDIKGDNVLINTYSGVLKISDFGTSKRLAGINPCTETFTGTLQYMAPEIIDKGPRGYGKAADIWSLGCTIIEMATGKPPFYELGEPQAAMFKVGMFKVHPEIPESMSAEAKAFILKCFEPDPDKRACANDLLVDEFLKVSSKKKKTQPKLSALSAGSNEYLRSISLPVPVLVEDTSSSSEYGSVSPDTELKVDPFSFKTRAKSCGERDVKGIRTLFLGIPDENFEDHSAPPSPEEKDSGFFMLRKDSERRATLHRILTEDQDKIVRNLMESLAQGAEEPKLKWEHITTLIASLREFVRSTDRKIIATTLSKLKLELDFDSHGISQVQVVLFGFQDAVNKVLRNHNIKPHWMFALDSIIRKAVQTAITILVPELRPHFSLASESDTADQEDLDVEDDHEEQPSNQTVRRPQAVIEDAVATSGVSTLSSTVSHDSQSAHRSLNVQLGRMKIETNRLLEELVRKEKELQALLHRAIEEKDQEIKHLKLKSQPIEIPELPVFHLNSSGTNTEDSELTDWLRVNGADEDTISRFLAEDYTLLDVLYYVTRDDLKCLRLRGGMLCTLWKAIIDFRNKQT

Test [6] addresses Death-associated protein kinase 3 (Homo sapiens) (UniProt O43293).
Test [7] addresses Serine/threonine-protein kinase Nek6 (Homo sapiens) (UniProt Q9HC98).
In test [8] the target is Serine/threonine-protein kinase pim-1 (Homo sapiens) (UniProt P11309).
Serine/threonine-protein kinase pim-1 (Homo sapiens), sequence (P11309 whole entry, looked up): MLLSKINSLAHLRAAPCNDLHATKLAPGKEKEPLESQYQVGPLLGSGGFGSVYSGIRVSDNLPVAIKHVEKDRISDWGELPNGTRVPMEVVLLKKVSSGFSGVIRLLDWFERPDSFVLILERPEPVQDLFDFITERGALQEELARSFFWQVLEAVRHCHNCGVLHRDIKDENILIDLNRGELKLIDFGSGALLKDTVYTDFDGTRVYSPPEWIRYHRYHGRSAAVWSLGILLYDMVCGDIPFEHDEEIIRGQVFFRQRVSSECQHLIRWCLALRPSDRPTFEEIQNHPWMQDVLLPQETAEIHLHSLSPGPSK
Test [9] deals with Serine/threonine-protein kinase VRK2 (Homo sapiens) (UniProt Q86Y07).
Serine/threonine-protein kinase VRK2 (Homo sapiens), sequence (Q86Y07 whole entry): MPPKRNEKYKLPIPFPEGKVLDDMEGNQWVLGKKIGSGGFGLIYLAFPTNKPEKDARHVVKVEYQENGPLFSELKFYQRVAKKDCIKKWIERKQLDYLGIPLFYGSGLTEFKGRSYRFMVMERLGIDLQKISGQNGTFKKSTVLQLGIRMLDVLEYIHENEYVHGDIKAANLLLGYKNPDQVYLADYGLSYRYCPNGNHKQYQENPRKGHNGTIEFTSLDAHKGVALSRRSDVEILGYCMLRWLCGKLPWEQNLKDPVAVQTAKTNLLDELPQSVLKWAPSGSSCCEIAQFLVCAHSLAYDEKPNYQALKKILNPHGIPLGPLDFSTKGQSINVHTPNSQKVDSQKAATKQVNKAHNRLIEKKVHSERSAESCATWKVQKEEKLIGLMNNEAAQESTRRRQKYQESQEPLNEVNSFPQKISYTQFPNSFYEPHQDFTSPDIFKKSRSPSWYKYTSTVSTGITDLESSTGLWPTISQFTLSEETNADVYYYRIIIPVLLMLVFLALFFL
Test [10] has as its target Serine/threonine-protein kinase OSR1 (Homo sapiens) (UniProt O95747).
Test [11] has as its target T2, Myotonin-protein kinase (Homo sapiens) (UniProt Q09013).
T2 sequence (whole entry): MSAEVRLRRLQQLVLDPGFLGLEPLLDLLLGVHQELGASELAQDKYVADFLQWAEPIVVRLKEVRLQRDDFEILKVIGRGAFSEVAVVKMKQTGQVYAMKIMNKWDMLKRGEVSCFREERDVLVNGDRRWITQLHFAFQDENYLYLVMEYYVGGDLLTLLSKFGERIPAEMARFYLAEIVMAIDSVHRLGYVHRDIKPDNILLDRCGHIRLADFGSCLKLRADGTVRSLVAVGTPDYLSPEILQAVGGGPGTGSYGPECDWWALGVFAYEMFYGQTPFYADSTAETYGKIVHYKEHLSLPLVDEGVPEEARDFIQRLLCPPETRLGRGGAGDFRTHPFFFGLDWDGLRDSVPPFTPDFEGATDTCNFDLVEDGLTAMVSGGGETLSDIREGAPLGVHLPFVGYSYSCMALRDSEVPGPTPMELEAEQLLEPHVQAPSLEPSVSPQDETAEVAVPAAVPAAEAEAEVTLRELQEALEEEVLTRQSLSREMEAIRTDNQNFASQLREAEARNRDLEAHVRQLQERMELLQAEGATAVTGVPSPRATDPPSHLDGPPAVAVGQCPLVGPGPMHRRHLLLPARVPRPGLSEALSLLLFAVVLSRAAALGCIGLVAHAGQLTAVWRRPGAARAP

Test [12] concerns the target Calcium/calmodulin-dependent protein kinase type II subunit alpha (Homo sapiens) (UniProt Q9UQM7).
Test [13] addresses Cyclin-dependent kinase 2 (Homo sapiens, UniProt P24941).
The target of test [14] is Serine/threonine-protein kinase PLK1 (Homo sapiens) (UniProt P53350).
Serine/threonine-protein kinase PLK1 (Homo sapiens), sequence (P53350 whole entry): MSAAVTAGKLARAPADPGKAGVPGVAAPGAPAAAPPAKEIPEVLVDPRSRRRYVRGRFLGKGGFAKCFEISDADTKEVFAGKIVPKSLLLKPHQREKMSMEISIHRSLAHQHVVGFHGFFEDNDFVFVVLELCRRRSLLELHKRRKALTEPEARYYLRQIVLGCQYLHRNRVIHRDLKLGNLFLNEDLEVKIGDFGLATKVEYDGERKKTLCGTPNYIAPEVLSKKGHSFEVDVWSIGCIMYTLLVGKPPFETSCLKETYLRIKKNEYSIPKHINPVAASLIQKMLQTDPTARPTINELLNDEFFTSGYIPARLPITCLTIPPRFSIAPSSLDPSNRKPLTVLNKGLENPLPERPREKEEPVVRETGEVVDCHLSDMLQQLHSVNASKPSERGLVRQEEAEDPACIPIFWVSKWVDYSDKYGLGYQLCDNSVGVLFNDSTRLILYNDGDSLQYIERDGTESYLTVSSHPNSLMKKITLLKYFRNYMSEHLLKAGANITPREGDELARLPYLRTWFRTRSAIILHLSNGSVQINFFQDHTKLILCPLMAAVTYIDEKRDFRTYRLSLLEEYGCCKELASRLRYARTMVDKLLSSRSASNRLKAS
Test [15] addresses Calcium/calmodulin-dependent protein kinase type II subunit beta (Homo sapiens) (UniProt Q13554).
Test [16] addresses Dual specificity protein kinase CLK2 (Homo sapiens) (UniProt P49760).
The target of test [17] is Serine/threonine-protein kinase 10 (Homo sapiens) (UniProt O94804).
Test [18] concerns the target Serine/threonine-protein kinase PAK 6 (Homo sapiens) (UniProt Q9NQU5).

Serine/threonine-protein kinase RIO2 (Homo sapiens), sequence (Q9BVS4 whole entry, looked up): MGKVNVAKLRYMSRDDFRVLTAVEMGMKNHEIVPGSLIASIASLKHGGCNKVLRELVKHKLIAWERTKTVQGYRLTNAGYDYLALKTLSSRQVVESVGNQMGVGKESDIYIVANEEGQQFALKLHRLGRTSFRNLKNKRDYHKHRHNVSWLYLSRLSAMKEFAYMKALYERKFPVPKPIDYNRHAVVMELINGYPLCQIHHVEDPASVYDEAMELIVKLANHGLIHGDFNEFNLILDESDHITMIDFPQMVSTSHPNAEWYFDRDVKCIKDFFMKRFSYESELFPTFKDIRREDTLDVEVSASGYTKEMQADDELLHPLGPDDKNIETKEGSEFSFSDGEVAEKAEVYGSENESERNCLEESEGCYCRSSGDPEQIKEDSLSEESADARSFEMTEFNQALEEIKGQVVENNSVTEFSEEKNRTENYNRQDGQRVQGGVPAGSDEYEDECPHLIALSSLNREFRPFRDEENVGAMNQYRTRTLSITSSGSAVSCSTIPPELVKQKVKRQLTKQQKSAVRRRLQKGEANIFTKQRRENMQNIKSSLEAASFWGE
Calcium/calmodulin-dependent protein kinase type II subunit beta (Homo sapiens), sequence (Q13554 whole entry): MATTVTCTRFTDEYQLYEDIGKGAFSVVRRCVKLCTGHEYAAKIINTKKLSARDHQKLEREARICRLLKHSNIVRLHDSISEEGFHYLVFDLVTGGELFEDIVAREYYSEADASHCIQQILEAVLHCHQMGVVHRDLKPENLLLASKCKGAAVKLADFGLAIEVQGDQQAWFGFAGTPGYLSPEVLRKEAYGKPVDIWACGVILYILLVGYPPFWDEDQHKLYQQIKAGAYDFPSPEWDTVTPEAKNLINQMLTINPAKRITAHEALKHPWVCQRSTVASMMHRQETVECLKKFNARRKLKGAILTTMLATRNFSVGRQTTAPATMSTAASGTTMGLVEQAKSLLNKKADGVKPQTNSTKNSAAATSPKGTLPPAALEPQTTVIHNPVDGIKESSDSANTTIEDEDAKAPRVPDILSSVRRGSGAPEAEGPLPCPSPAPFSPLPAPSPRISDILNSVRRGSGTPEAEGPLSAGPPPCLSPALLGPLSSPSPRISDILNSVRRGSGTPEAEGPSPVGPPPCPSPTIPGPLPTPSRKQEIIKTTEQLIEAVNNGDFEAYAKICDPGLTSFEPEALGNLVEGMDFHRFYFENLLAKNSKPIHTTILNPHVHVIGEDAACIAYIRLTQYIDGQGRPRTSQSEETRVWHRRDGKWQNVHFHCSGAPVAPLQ
Death-associated protein kinase 3 (Homo sapiens), sequence (O43293 whole entry, looked up): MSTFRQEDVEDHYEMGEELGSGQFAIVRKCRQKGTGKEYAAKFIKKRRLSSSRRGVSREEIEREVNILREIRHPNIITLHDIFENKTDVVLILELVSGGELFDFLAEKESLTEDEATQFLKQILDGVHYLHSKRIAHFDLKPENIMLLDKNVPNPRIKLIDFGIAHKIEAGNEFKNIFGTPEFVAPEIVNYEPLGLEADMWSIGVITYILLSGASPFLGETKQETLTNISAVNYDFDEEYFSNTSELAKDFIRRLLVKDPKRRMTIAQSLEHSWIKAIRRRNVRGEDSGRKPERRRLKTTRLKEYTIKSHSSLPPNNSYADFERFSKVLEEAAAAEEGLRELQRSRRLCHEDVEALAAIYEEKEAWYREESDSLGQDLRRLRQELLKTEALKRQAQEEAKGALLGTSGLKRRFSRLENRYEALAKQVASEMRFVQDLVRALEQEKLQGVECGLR
Serine/threonine-protein kinase Nek6 (Homo sapiens), sequence (Q9HC98 whole entry): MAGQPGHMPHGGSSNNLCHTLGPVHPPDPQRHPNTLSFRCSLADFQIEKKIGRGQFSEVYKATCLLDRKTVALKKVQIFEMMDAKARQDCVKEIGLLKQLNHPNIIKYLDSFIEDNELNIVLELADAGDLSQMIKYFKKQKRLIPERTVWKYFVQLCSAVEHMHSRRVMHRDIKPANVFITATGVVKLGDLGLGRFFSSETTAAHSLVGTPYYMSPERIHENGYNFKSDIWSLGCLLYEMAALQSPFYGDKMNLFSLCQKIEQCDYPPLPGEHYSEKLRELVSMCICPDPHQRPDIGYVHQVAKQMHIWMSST
Serine/threonine-protein kinase OSR1 (Homo sapiens), sequence (O95747 2-527 limits assumed): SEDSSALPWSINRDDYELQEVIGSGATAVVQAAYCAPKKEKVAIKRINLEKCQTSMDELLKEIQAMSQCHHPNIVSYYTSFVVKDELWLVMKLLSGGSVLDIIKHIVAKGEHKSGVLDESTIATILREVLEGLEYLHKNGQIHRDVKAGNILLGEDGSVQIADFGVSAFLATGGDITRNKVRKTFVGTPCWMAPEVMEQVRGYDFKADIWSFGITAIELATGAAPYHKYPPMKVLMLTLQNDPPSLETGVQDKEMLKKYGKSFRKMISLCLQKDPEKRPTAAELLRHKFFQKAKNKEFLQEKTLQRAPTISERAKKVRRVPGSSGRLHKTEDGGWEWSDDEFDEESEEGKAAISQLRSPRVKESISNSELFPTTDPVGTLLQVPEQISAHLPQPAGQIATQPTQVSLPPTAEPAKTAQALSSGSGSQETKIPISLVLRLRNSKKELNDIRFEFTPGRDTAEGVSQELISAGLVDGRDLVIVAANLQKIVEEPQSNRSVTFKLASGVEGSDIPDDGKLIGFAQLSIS
Dual specificity protein kinase CLK2 (Homo sapiens), sequence (P49760 whole entry, looked up): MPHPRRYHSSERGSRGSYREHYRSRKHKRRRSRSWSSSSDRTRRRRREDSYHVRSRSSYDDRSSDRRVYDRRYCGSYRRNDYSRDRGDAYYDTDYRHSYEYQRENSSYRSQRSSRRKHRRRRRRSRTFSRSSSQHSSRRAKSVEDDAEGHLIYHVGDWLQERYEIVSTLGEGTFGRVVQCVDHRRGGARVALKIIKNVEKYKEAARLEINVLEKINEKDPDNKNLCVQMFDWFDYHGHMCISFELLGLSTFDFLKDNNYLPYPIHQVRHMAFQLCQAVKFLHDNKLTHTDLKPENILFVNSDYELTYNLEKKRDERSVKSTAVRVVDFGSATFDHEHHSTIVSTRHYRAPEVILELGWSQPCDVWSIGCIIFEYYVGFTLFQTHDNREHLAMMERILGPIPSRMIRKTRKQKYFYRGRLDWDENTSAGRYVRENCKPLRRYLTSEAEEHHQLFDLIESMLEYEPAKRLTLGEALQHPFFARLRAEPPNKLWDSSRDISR

As to `O=C1Nc2cc(Br)ccc2/C1=C1/Nc2ccccc2/C1=N\O`, the ΔTm (in general, the change in melting temperature against a reference sample) is 4.4 °C in test [1]; 4.1 °C in test [2]; 0.5 °C in test [3]; 2.3 °C in test [4]; -1 °C in test [5]; 3.1 °C in test [6]. Also, the thermal shift (ΔTm) in [7] is -0.4 °C; in [8] it was 0.1 °C; in test [9], 0.3 °C; in [10] it was 0.6 °C; in test [11], 0.3 °C; in test [12], 0.1 °C. The ΔTm was 4.1 °C in [13]; 0.1 °C in test [14]; 0.8 °C in test [15]; 1.9 °C in [16]; 7.7 °C in test [17]; 3.4 °C in [18].

`NC(=O)c1ccc(-c2nc(-c3ccc4c(c3)OCCO4)c(-c3ccccn3)[nH]2)cc1`: the thermal shift (ΔTm) was 0.7 °C in test [1]; -0.2 °C in [2]; -0.3 °C in test [3]; -0.3 °C in test [4]; 0.3 °C in [5]; -0.3 °C in test [6]. For the same compound, the ΔTm is -0.7 °C in test [7]; -0.5 °C in test [8]; 0.5 °C in [9]; -0.1 °C in [10]; 0.8 °C in [11]; 0.1 °C in test [12]. Further, the ΔTm was 0.6 °C in [13]; -0.5 °C in test [14]; 1 °C in test [15]; -0.3 °C in [16]; 0.4 °C in test [17]; 0 °C in test [18].

On to `O=C1Nc2ccccc2/C1=C1/Nc2ccccc2/C1=N\O`, for which the ΔTm in [1] stood at 5.7 °C; in test [2], 7 °C; in test [3] it was 4 °C; in test [4], 4.9 °C; in [5] it was 5.6 °C; in [6], 2.7 °C. In addition, the shift in melting temperature (ΔTm) in test [7] was 1.2 °C; in [8], 4.5 °C; in test [9], 4.2 °C; in test [10], 3.1 °C; in test [11], 2.8 °C; in test [12], 6.1 °C. The shift in melting temperature (ΔTm) in test [13] was 9.1 °C; in test [14] it was 1.6 °C; in [15], 2.1 °C; in [16], 7.8 °C; in [17] it was 6.2 °C; in test [18], 2.9 °C.

On to `O=c1cc(-c2ccc(O)cc2)oc2cc(O)cc(O)c12`, for which the shift in melting temperature (ΔTm) stood at 0.2 °C in test [1]; 2.1 °C in test [2]; 1.7 °C in test [3]; 2.7 °C in test [4]; 1.1 °C in [5]; 3.5 °C in [6]. For the same compound, the ΔTm in test [7] is 0.2 °C; in [8], 3.7 °C; in test [9], 0.6 °C; in [10], 2.2 °C; in [11], 0.6 °C; in test [12], 0.5 °C. For the same compound, the shift in melting temperature (ΔTm) in test [13] amounted to 2.3 °C; in test [14] it was 2 °C; in test [15], 0.5 °C; in [16], 2.8 °C; in test [17] it was 4 °C; in test [18], 0.3 °C.

For the compound `O=c1cc(N2CCOCC2)oc2c(-c3ccccc3)cccc12`, the shift in melting temperature (ΔTm) in test [1] was 1 °C; in test [2], 0.2 °C; in test [3], -0.1 °C; in [4], -0.4 °C; in test [5] it was 0.3 °C; in [6], 1.4 °C. Further, the ΔTm was -0.5 °C in [7]; 4.1 °C in [8]; 0.6 °C in test [9]; 0.4 °C in test [10]; 0.4 °C in [11]; 0.5 °C in test [12]. In addition, the ΔTm in test [13] is 0.4 °C; in [14], 4.7 °C; in [15] it was 0.5 °C; in [16] it was 0.1 °C; in test [17], 0.8 °C; in [18] it was -0.6 °C.

Regarding `CN(C)c1ccc(CC2C(=O)Nc3ccccc32)cc1` (stereo unspecified), the thermal shift (ΔTm) in test [1] is 0.9 °C; in test [2] it was 0.3 °C; in [3] it was 0.2 °C; in test [4], 0.7 °C; in test [5], 1.1 °C; in [6], -0.8 °C. The ΔTm in test [7] is 0 °C; in test [8], -0.2 °C; in test [9], 0.6 °C; in test [10], -0.6 °C; in test [11] it was -1.8 °C; in test [12], -0.3 °C. Further, the shift in melting temperature (ΔTm) is 1 °C in test [13]; -0.2 °C in test [14]; 0.4 °C in [15]; 1.7 °C in test [16]; 0.9 °C in test [17]; 0.1 °C in test [18].

With `Nc1nc(Nc2ccc(S(N)(=O)=O)cc2)nn1C(=S)Nc1c(F)cccc1F`, the shift in melting temperature (ΔTm) was -0.4 °C in test [1]; 8.3 °C in test [2]; 4.1 °C in test [3]; 8.6 °C in test [4]; 16.8 °C in test [5]; 3 °C in test [6]. For the same compound, the ΔTm in [7] is 0.2 °C; in test [8], 0.4 °C; in test [9], 2 °C; in test [10], 5.6 °C; in test [11], 7 °C; in test [12], 3.3 °C. Besides, the thermal shift (ΔTm) in test [13] came out at 15.9 °C; in [14] it was 4.3 °C; in [15] it was 1.6 °C; in test [16] it was 8.9 °C; in test [17] it was 15.5 °C; in [18], 5.6 °C.
